Like-named read-outs stand apart in the source and are kept apart here.
Biological target: T1, SIRT1 (Homo sapiens, UniProt Q96EB6)
T1 sequence (Q96EB6 1-747): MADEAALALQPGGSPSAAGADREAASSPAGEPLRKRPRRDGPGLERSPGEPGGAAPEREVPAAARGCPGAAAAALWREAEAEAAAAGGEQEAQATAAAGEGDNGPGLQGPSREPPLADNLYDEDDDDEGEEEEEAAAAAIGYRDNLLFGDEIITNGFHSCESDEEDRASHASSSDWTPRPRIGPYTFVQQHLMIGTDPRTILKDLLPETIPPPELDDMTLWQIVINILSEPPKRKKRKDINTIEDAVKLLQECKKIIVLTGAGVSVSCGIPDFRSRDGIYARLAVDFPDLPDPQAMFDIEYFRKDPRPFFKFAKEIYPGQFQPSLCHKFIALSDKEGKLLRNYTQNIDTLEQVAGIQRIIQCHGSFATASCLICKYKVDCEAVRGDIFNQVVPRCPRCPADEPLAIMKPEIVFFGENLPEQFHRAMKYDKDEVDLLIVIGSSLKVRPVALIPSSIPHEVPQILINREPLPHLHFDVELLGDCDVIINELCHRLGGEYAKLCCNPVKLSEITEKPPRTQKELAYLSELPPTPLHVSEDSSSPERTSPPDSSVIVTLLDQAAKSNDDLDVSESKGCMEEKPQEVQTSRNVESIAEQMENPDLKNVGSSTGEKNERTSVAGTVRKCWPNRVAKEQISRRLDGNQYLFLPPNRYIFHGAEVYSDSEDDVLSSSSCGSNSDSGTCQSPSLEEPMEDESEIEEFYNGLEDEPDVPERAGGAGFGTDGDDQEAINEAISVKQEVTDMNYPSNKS
Test: Trp mass spectrometry assay (SIRT1 activation)
Assay type: biochemical
Conditions: for Emax: percent maximum fold activation of SIRT1, read-out: Tryp % Fold Act
Summary of the method: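 N-His-tagged SIRT1 (10 nM), expressed in E. coli, was incubated with 0.5 μM Ac-RHKK(Ac)W-NH2 peptide and 120 μM NAD+ for 25 min at 25 °C in HEPES pH 7.5 with […]. The reaction was stopped with formic acid and O-acetyl-ADP-ribose or deacetylated peptide was quantified by mass spectrometry. Results are given as EC1.5 and percent maximal activation relative to DMSO control.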

[1] = Trp mass spectrometry assay, EC1.5 = concentration giving 150% activation of SIRT1
[2] = concentration of test compound that results in 150% activation of SIRT1, Trp peptide substrate
[3] = Trp mass spectrometry assay, EC1.5 = concentration of test compound that results in 150% activation of SIRT1

| SMILES | Tryp AVG EC1.5 (μM) [1] | Emax (Trp mass spectrometry assay) | Tryp AVG EC1.5 (μM) [2] | Emax (Trp peptide substrate) | Tryp AVG EC1.5 (μM) [3] |
| --- | --- | --- | --- | --- | --- |
| C#CCOc1cc(-c2ccc3c(n2)N(C(=O)Nc2cccc(C4(C(F)(F)F)N=N4)c2)[C@H]2CCN3C2)cc(C(F)(F)F)c1 [Example 800] | C (EC1.5>25 μM) | < 150% |  |  |  |
| O=C(Nc1ccncc1)N1c2nc(N3CCCC(C(F)(F)F)C3)ccc2N2CCC[C@@H]1C2 (stereo partly drawn) [Example 305] |  |  | B (EC1.5 1-25 μM) | ≥ 150% |  |
| COc1ncc(-c2ccc3c(n2)N(C(=O)Nc2ccccn2)[C@H]2CCN3C2)c(OC)n1 [Example 263] |  |  | B (EC1.5 1-25 μM) | ≥ 150% |  |
| O=C(Nc1cnccn1)N1c2nc(-c3cccc(N4CCOCC4)c3)ccc2N2CCC[C@H]1C2 [Example 560] |  |  | B (EC1.5 1-25 μM) | ≥ 150% |  |
| Cn1ccc(NC(=O)N2c3nc(-c4cccc(C#N)c4)ccc3N3CC[C@H]2C3)n1 [Example 185] |  | ≥ 150% |  |  | B (EC1.5 1-25 μM) |
| O=C(CCCCCNC(=O)c1ccc(-c2c3ccc(=O)cc-3oc3cc(O)ccc23)c(C(=O)O)c1)NCc1ccc(NC(=O)N2c3nc(-c4cccc(C(F)(F)F)c4)ccc3N3CCC[C@H]2C3)cc1 [546 (3)] |  |  | B (EC1.5 1-25 μM) | < 150% |  |
| O=C(Nc1cnccn1)N1c2nc(-c3cncc(Cl)c3)ccc2N2CCC1CC2 [Example 550] |  |  | B (EC1.5 1-25 μM) | ≥ 150% |  |
| O=C(Nc1cccnc1)N1c2nc(-c3cccnc3)ccc2N2CCC[C@H]1C2 [Example 455] |  |  | B (EC1.5 1-25 μM) | ≥ 150% |  |
| O=C(Nc1ccnc(Br)c1)N1c2nc(-c3cccc(C(F)(F)F)c3)ccc2N2CC[C@H]1C2 [Example 541] |  |  | A (EC1.5<1 μM) | ≥ 150% |  |
| O=C(Nc1ccccn1)N1c2nc(-c3cncc(F)c3)ccc2N2CCC[C@H]1C2 [Example 470] |  |  | A (EC1.5<1 μM) | ≥ 150% |  |
| O=C(Nc1cccnc1)N1c2nc(-c3cccc(N4CCOCC4)c3)ccc2N2CCC[C@H]1C2 [Example 538] |  |  | A (EC1.5<1 μM) | ≥ 150% |  |
| O=C(Nc1cccnn1)N1c2nc(-c3cccc(C(F)(F)F)c3)ccc2N2CCC[C@H]1C2 [Example 28] |  | ≥ 150% |  |  |  |
| O=C(Nc1cc(-c2cnco2)ccn1)N1c2nc(-c3cncc(C(F)(F)F)c3)ccc2N2C[C@@H](O)[C@H]1C2 [Example 726] | B (EC1.5 1-25 μM) | < 150% |  |  |  |
| CC(C)(C)OC(=O)NCc1ccc(NC(=O)N2c3nc(-c4cccc(C(F)(F)F)c4)ccc3N3CC[C@H]2C3)cc1 [Example 793] | B (EC1.5 1-25 μM) | ≥ 150% |  |  |  |
| O=C(Nc1cccc(-c2cccnc2)n1)N1c2nc(-c3cccc(C(F)(F)F)c3)ccc2N2CC[C@H]1C2 [Example 655] | A (EC1.5<1 μM) | ≥ 150% |  |  |  |
| Cc1cc(C(F)(F)F)nc(NC(=O)N2c3nc(-c4cccc(C(F)(F)F)c4)ccc3N3CC[C@H]2C3)n1 [Example 94] |  | ≥ 150% |  |  | B (EC1.5 1-25 μM) |
| COc1cncc(NC(=O)N2c3nc(-c4ccnc(C)c4)ccc3N3CC[C@H]2C3)n1 [Example 499] |  |  | A (EC1.5<1 μM) | ≥ 150% |  |
| FC(F)(F)c1cccc(-c2ccc3c(n2)N(C(=S)Nc2cccc(-c4cnco4)c2)[C@H]2CCN3C2)c1 [Example 763] | A (EC1.5<1 μM) | ≥ 150% |  |  |  |
| O=C(CCCCCNC(=O)c1ccc(-c2c3ccc(=O)cc-3oc3cc(O)ccc23)c(C(=O)O)c1)NCc1ccc(NC(=O)N2c3nc(-c4cccc(C(F)(F)F)c4)ccc3N3CC[C@H]2C3)cc1 [Example 547] |  |  | C (EC1.5>25 μM) | < 150% |  |
| COc1cc(NC(=O)N2c3nc(-c4cccc(C(F)(F)F)c4)ccc3N3CCC[C@H]2C3)ncn1 [Example 41] |  | ≥ 150% |  |  |  |
| COc1cc(NC(=O)N2c3nc(-c4cccc(N5CC[C@H](F)C5)c4)ccc3N3CC[C@H]2C3)ncn1 [Example 255] |  |  | B (EC1.5 1-25 μM) | ≥ 150% |  |
| CC(C)c1cccc(-c2ccc3c(n2)N(C(=O)Nc2ccccn2)[C@H]2CCN3C2)c1 [Example 330] |  |  | A (EC1.5<1 μM) | ≥ 150% |  |
| O=C(Nc1cnccn1)N1c2nc(-c3cc(F)cc(F)c3)ccc2N2CC[C@H]1C2 [Example 397] |  |  | C (EC1.5>25 μM) | ≥ 150% |  |
| COc1cc(NC(=O)N2c3nc(-c4ccnc(F)c4)ccc3N3CC[C@H]2C3)ncn1 [Example 358] |  |  | C (EC1.5>25 μM) | < 150% |  |

| SMILES | Tryp AVG EC1.5 (μM) [1] | Emax (Trp mass spectrometry assay) | Tryp AVG EC1.5 (μM) [2] | Emax (Trp peptide substrate) | Tryp AVG EC1.5 (μM) [3] |
| --- | --- | --- | --- | --- | --- |
| O=C(Nc1cccc(Br)n1)N1c2nc(-c3cccc(C(F)(F)F)c3)ccc2N2CC[C@H]1C2 [Example 652] | A (EC1.5<1 μM) | ≥ 150% |  |  |  |
| N#Cc1cccc(-c2ccc3c(n2)N(C(=O)Nc2ccc(F)cn2)[C@@H]2CCCN3C2)c1 [Example 227] |  |  | B (EC1.5 1-25 μM) | ≥ 150% |  |
| Cc1cc(-c2ccc3c(n2)N(C(=O)Nc2cc(-c4cnco4)ccn2)[C@H]2CCN3C2)ccn1 [Example 746] | A (EC1.5<1 μM) | ≥ 150% |  |  |  |
| O=C(Nc1ccc(F)cn1)N1c2nc(-c3cncc(Cl)c3)ccc2N2CCC[C@H]1C2 [Example 401] |  |  | A (EC1.5<1 μM) | ≥ 150% |  |
| COc1cncc(-c2ccc3c(n2)N(C(=O)Nc2ccccn2)[C@H]2CCN3C2)c1 [Example 346] |  |  | B (EC1.5 1-25 μM) | ≥ 150% |  |
| COc1cc(NC(=O)N2c3nc(-c4cccc(N(C)C)c4)ccc3N3CCC[C@@H]2C3)ncn1 [Example 265] |  |  | B (EC1.5 1-25 μM) | ≥ 150% |  |
| O=C(Nc1ccccn1)N1c2nc(-c3ccc4nonc4c3)ccc2N2CC[C@H]1C2 [Example 372] |  |  | B (EC1.5 1-25 μM) | ≥ 150% |  |
| O=C(Nc1nnc(-c2ccccc2)o1)N1c2nc(-c3cccc(C(F)(F)F)c3)ccc2N2CC[C@H]1C2 [Example 719] | A (EC1.5<1 μM) | ≥ 150% |  |  |  |
| CC(C)(C)OC(=O)NCCCc1cc(NC(=O)N2c3nc(-c4cccc(C(F)(F)F)c4)ccc3N3CCC[C@H]2C3)cc(-c2cnco2)c1 [Example 754] | A (EC1.5<1 μM) |  |  |  |  |
| O=C(Nc1ccncc1F)N1c2nc(-c3cccc(OC[C@@H](O)CO)c3)ccc2N2CC[C@H]1C2 [Example 157] |  | ≥ 150% |  |  | B (EC1.5 1-25 μM) |
| Cn1cc(NC(=O)N2c3nc(-c4cccc(N5CCCC5)c4)ccc3N3CC[C@H]2C3)cn1 [Example 199] |  | ≥ 150% |  |  | B (EC1.5 1-25 μM) |
| Cc1noc(C)c1-c1cccc(NC(=O)N2c3nc(-c4cccc(C(F)(F)F)c4)ccc3N3CC[C@H]2C3)n1 [Example 657] | A (EC1.5<1 μM) | ≥ 150% |  |  |  |
| O=C(Nc1ccncc1F)N1c2nc(-c3cccc(Cl)c3)ccc2N2CC[C@H]1C2 [Example 24] |  | ≥ 150% |  |  |  |
| CC(C)C(=O)c1cccc(NC(=O)N2c3nc(-c4cccc(C(F)(F)F)c4)ccc3N3CC[C@H]2C3)c1 [Example 740] | A (EC1.5<1 μM) | ≥ 150% |  |  |  |
| Cc1ccc(-c2ccc3c(n2)N(C(=O)Nc2cncc(F)c2)[C@H]2CCN3C2)cn1 [Example 224] |  |  | B (EC1.5 1-25 μM) | ≥ 150% |  |
| COc1cc(NC(=O)N2c3nc(-c4cncc(F)c4)ccc3N3CCC[C@H]2C3)ncn1 [Example 404] |  |  | A (EC1.5<1 μM) | ≥ 150% |  |
| O=C(Nc1cccnc1)N1c2nc(-c3cccc(C(F)(F)F)c3)ccc2N2C[C@@H](O)[C@H]1C2 [Example 663] | A (EC1.5<1 μM) | ≥ 150% |  |  |  |
| NCc1cccc(NC(=O)N2c3nc(-c4cccc(C(F)(F)F)c4)ccc3N3CC[C@H]2C3)c1 [Example 755] | B (EC1.5 1-25 μM) | ≥ 150% |  |  |  |
| O=C(Nc1cccc(CN2CCNCC2)c1)N1c2nc(-c3cccc(C(F)(F)F)c3)ccc2N2CC[C@H]1C2 [Example 731] | A (EC1.5<1 μM) | ≥ 150% |  |  |  |
| O=C(Nc1cccnc1)N1c2nc(C3CCCC(C(F)(F)F)C3)ccc2N2CC[C@H]1C2 (stereo partly drawn) [Example 99] |  | ≥ 150% |  |  | A (EC1.5<1 μM) |
| O=C(Nc1cc(-c2cnco2)ccn1)N1c2nc(-c3cccc(Cl)c3)ccc2N2C[C@@H](O)[C@H]1C2 [Example 685] | B (EC1.5 1-25 μM) | ≥ 150% |  |  |  |
| O=C(Nc1ccccn1)N1c2nc(-c3ccc4c(c3)OC(F)(F)O4)ccc2N2CC[C@H]1C2 [Example 262] |  |  | B (EC1.5 1-25 μM) | ≥ 150% |  |
| Cc1nc(NC(=O)N2c3nc(N4CCCC(C(F)(F)F)C4)ccc3N3CCC[C@@H]2C3)sc1C (stereo partly drawn) [Example 313] |  |  | C (EC1.5>25 μM) | < 150% |  |

From patent US9765075B2, “Substituted bridged urea analogs as sirtuin modulators” (GLAXOSMITHKLINE LLC, priority 2013, dated 2017)
